Data on one compound can be found in patent publication US12129254B1, “Pyrimido[6′,1′:2,3]imidazo[4,5-b][1,6]naphthyridine compounds as CK2 inhibitors” (KING FAISAL UNIVERSITY, priority 2023, dated 2024).

In one experiment the test system is PC3 (prostate). As to the kind of experiment: In vitro cytotoxic activity (MTT) assay, PC3. In kind it is cell-based. To be noted: Homo sapiens, Prostate cell; PC3 (prostate) cells, exposed for 96 hours; read-out: IC50, concentration of compound eliciting a 50% inhibition of cell proliferation. As to the method:
(§1) Compounds 1-16 were screened for their in vitro cytotoxic activity utilizing a 3-(4,5-dimethyl-thiazol-2-yl)-2,5-diphenyltetrazolium bromide (MTT) assay against selected cancer human cell lines consisting of PC3 (prostate), HCT116 (colon), A375 (melanoma), H1299 (lung), MIAPaCa-2 (pancreas), HL60 (leukemia), MCF7 (breast), MDA-MB-231 (breast) (T. Mosmann, J. Immunol. Meth., 1983, 65, 55-63). The cells were cultured at 37° C. in RMPI1640 medium supplemented with 10% fetal bovine serum, 50 IU/mL penicillin, and 50 μg/mL streptomycin in a 5% CO2 incubator. All cells were sub-cultured 3 times/week by trypsinisation. Viable cells were seeded and allowed to adhere for 12 h before a test drug was added in 96-well plates at an initial density of 1.0×10^5 cells/mL. Tumour cell lines were separately exposed to various concentrations of the tested compounds followed by incubation at a temperature of 37° C. during 96 h inside a medium of fresh RMPI 1640. Cells were subsequently incubated at 37° C. using MTT at 0.5 mg/mL during 4 h. After removal of supernatant, formazan crystals were dissolved in isopropanol and the optical density was measured at 570 nm. CX-4945 was used as a positive control.

A further experiment has as its system A375 (melanoma). As to the kind of experiment: In vitro cytotoxic activity (MTT) assay, A375. The format is cell-based. To be noted: Homo sapiens, A-375; A375 (melanoma) cells, exposed for 96 hours; read-out: IC50, concentration of compound eliciting a 50% inhibition of cell proliferation. How it is done: as §1
Another experiment concerns MDA-MB-231 (breast). As to the kind of experiment: In vitro cytotoxic activity (MTT) assay, MDA-MB-231. To be noted: Homo sapiens; MDA-MB-231 (breast) cells, exposed for 96 hours; read-out: IC50, concentration of compound eliciting a 50% inhibition of cell proliferation. In kind it is cell-based. How it is done:
as §1

A further experiment deals with HL60 (leukemia). The experiment in a line: In vitro cytotoxic activity (MTT) assay, HL60. In kind it is cell-based. To be noted: Homo sapiens, HL-60; HL60 (leukemia) cells, exposed for 96 hours; read-out: IC50, concentration of compound eliciting a 50% inhibition of cell proliferation. How it is done: as §1
The target in experiment [1] is T1, recombinant human CK2 (RRββ-holoenzyme) (Homo sapiens, UniProt P68400).
T1 construct: purchased Millipore
T1 sequence (P68400 whole entry): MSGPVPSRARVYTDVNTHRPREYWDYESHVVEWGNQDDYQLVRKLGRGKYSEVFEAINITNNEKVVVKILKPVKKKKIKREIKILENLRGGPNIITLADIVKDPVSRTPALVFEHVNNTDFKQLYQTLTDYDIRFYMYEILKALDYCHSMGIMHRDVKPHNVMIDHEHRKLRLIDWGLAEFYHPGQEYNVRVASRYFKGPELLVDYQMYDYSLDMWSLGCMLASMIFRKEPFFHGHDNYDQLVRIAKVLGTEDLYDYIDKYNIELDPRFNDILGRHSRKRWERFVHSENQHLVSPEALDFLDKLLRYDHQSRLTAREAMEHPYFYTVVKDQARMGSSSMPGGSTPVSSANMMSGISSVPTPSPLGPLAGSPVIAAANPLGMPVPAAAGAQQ
T1 sequence (P67870 whole entry partner): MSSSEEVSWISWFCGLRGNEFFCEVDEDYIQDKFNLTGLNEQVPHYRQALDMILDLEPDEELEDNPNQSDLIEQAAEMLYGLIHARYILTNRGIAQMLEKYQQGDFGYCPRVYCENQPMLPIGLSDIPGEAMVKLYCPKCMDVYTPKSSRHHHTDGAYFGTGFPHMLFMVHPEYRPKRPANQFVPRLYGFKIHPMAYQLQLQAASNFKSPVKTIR
As to the kind of experiment: CK2 Kinase Assay (radiometric, [γ-33P] ATP). In kind it is biochemical. The following applies: final ATP concentration 15 μM, 10 min at 30° C., eight concentrations; read-out: protein kinase CK2 IC50. How it is done: CK2 Kinase Assay was conducted using the protocol as described in Pierre F. et al; J. Med. Chem. 2011, 54, 635-654. The tested compounds in aqueous solution were added at a volume of 10 μL to a reaction mixture comprising 10 μL of assay dilution buffer (ADB; 20 mM MOPS, pH 7.2, 25 mM β-glycerol phosphate, 5 mM EGTA, 1 mM sodium orthovanadate, and 1 mM dithiothreitol), 10 μL of substrate peptide (RRRDDDSDDD, dissolved in ADB at a concentration of 1 mM), 10 μL of recombinant human CK2 (RRββ-holoenzyme, 25 ng dissolved in ADB; Millipore). Reactions were initiated by the addition of 10 μL of ATP solution (90% 75 mMMgCl2, 75 μM ATP (final ATP concentration: 15 μM) dissolved in ADB; 10% [γ-33P] ATP (stock 1 mCi/100 μL; 3000 Ci/mmol (Perkin-Elmer) and maintained for 10 min at 30° C. The reactions were quenched with 100 μL of 0.75% phosphoric acid and then transferred to and filtered through a phosphor cellulose filter plate (Millipore). After washing each well five times with 0.75% phosphoric acid, the plate was dried under vacuum for 5 min and, following the addition of 15 μL of scintillation fluid to each well, the residual radioactivity was measured using a Wallac luminescence counter. The IC50 values were derived from eight concentrations of test inhibitors.

In a further experiment the test system is H1299 (lung). As to the kind of experiment: In vitro cytotoxic activity (MTT) assay, H1299. To be noted: Homo sapiens, NCI-H1299; H1299 (lung) cells, exposed for 96 hours; read-out: IC50, concentration of compound eliciting a 50% inhibition of cell proliferation. In kind it is cell-based. How it is done:
as §1

The test system of a further experiment is MIAPaCa-2 (pancreas). The experiment in a line: In vitro cytotoxic activity (MTT) assay, MIAPaCa-2. In kind it is cell-based. To be noted: Homo sapiens, MIA PaCa-2; MIAPaCa-2 (pancreas) cells, exposed for 96 hours; read-out: IC50, concentration of compound eliciting a 50% inhibition of cell proliferation. How it is done: as §1
Another experiment relates to MCF7 (breast). The experiment in a line: In vitro cytotoxic activity (MTT) assay, MCF7. The following applies: Homo sapiens; MCF7 (breast) cells, exposed for 96 hours; read-out: IC50, concentration of compound eliciting a 50% inhibition of cell proliferation. In kind it is cell-based. As to the method:
as §1

The next experiment concerns HCT116 (colon). The experiment in a line: In vitro cytotoxic activity (MTT) assay, HCT116. In kind it is cell-based. The following applies: Homo sapiens, HCT-116; HCT116 (colon) cells, exposed for 96 hours; read-out: IC50, concentration of compound eliciting a 50% inhibition of cell proliferation. As to the method: as §1

`Clc1cccc(Nc2c3cnccc3nc3c2nc2ccncn23)c1` [Compound 1, N-(3-chlorophenyl)pyrimido[6′,1′:2,3]imidazo[4,5-b][1,6]naphthyridin-12-amine]: the IC50 with PC3 (prostate) came out at 2200 nM; with A375 (melanoma) it was 3000 nM; with MDA-MB-231 (breast) it was 4700 nM; in the experiment on HL60 (leukemia) it was 3100 nM; in [1] it was 138 nM; in the experiment on H1299 (lung) it was 2500 nM. The values for the IC50 in the experiment on MIAPaCa-2 (pancreas), in the experiment with MCF7 (breast) and with HCT116 (colon) were 1400 nM, 5900 nM and 1700 nM, respectively.
